According to US4738954A, “Novel N^6 -substituted-5'-oxidized adenosine analogs” (Warner-Lambert Company, priority 1985, dated 1988):
pIC50: −log10 of the molar value.

Legend:
adenosine A1 receptor = target: T1, adenosine A1 receptor (Rattus norvegicus, UniProt P25099); assay: Adenosine Receptor Binding--A1 Receptor Affinity (RBA1), [3H]-CHA displacement; conditions: 1.0 nM [3H]-CHA, rat brain, 25° C, 1 h; read-out: RBA-1 (IC50, A1 receptor affinity)
T1 construct: Whole brain minus cerebellum and brainstem from male Long Evans rats; from tissue; host or cells: rat whole brain minus cerebellum and brainstem, membranes
T1 sequence (P25099 1-326): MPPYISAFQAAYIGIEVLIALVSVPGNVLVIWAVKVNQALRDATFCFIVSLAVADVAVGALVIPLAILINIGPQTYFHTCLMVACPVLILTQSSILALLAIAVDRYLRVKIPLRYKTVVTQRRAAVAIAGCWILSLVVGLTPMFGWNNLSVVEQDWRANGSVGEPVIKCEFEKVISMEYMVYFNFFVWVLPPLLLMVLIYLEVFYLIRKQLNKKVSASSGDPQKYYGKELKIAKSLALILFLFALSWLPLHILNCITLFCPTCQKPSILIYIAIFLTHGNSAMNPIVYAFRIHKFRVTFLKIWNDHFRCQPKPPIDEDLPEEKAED
Method: Adenosine Receptor Binding--A1 Receptor Affinity (RBA1)
Whole brain minus cerebellum and brainstem from male Long Evans rats (105-200 g) was homogenized in 30 volumes of ice-cold 0.05M Tris-HCl buffer pH 7.7 using a Brinkman Polytron PT-10, (setting number 6 for 20 seconds) and centrifuged for ten minutes at 20,000×g (Sorvall RC-2), 4° C. The supernatant was discarded, and the pellet was resuspended and centrifuged as before. The pellet was resuspended in 20 ml Tris-HCl buffer containing two International Units/ml of adenosine deaminase (Sigma type III from calf intestinal mucosa), incubated at 37° C. for 30 minutes, then subsequently at 0° C. for ten minutes. The homogenate was again centrifuged, and the final pellet was resuspended in ice-cold 0.05M Tris-HCl buffer pH 7.7 to a concentration of 20 mg/ml original wet tissue weight and used immediately.
Tissue homogenate (10 mg/ml) was incubated in 0.05M Tris-HCl buffer pH 7.7 containing 1.0 nM ((^3 H))-N^6 -cyclohexyladenosine ([^3 H]-CHA) with or without test agents in triplicate for one hour at 25° C. Incubation volume was 2 ml. Unbound [^3 H]-CHA was separated by rapid filtration under reduced pressure through Whatman glass fiber (GF/B) filters. The filters were rinsed three times with 5 ml of ice cold 0.05M Tris-HCl buffer pH 7.7. The radio-labeled ligand retained on the filter was measured by liquid scintillation spectrophotometry after shaking the filters for one hour or longer on a mechanical shaker in 10 ml of Beckman Ready-Solv HP scintillation cocktail.
Nonspecific binding was defined as the binding which occured in the presence of 1 mM theophylline. The concentration of test agent which inhibited 50% of the specific binding (IC50) was determined by nonlinear computer curve fit. The Scatchard plot was calculated by linear regression of the line obtained by plotting the amount of radioligand bound (pmoles/gram of tissue) versus [formula] Since the amount of radioligand bound was a small fraction of the total amount added, free radioligand was defined as the concentration of (nM) of radioligand added to the incubation mixture. The Hill coefficient was calculated by linear regression of the line obtained by plotting the log of the bound radioligand vs the log of the [formula] The maximal number of binding sites (Bmax) was calculated from the Scatchard plot.

adenosine A2 receptor = target: T2, adenosine A2 receptor (Rattus norvegicus, UniProt P30543); assay: Adenosine Receptor Binding--A2 Receptor Affinity (RBA2), [3H]NECA displacement; format: rat (Sprague-Dawley striatal membranes); conditions: 4 nM [3H]NECA + 50 nM N6-cyclopentyladenosine, rat striatum, 25° C, 60 min; read-out: RBA-2 (IC50, A2 receptor affinity)
T2 construct: Brains were thawed and then kept on ice while the striata were dissected out; tissue Pel-Freez (Rogers, Arkansas) (rat brains); host or cells: rat striatum, membranes
T2 sequence (P30543 whole entry): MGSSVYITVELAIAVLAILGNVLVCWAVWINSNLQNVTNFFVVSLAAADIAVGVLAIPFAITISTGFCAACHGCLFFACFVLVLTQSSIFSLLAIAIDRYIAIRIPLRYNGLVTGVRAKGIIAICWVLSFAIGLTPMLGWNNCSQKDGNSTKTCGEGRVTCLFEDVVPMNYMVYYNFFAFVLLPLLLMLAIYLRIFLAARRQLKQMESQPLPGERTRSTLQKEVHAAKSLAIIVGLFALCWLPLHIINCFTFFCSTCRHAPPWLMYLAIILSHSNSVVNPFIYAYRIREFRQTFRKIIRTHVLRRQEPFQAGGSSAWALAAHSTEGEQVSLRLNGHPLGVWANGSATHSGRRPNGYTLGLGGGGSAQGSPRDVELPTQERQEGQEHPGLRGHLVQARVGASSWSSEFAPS
Method: Adenosine Receptor Binding--A2 Receptor Affinity (RBA2)
Brains from 200-500 g mixed sex Sprague-Dawley rats were purchased from Pel-Freez (Rogers, Arkansas). Fresh brains from male Long-Evans hooded rats (Blue Spruce Farms, Altamont, NY) gave essentially identical results. Brains were thawed and then kept on ice while the striata were dissected out. Striata were disrupted in 10 vol of ice-cold 50 mM Tris.HCl (pH 7.7 at 25° C., pH 8.26 at 5° C.) (Tris) for 30 seconds in a Polytron PT-10 (Brinkmann) at setting 5. The suspension was centrifuged at 50,000×g for ten minutes, the supernatant discarded, the pellet resuspended in 10 vol ice-cold Tris as above, recentrifuged, resuspended at 1 g/5 ml, and stored in plastic vials at -70° C. (stable for at least six months). When needed, tissue was thawed at room temperature, disrupted in a Polytron, and kept on ice until used.
All incubations were for 60 minutes at 25° C. in 12×75 mm glass tubes containing 1 ml Tris with 5 mg original tissue weight of rat weight of rat striatal membranes, 4 nM [^3 H]-N-ethyl adenosine-5'-carboxamide ([^3 H]NECA), 50 nM N^6 -cyclopentyladenosine (to eliminate A1 receptor binding), 10 mM MgCl2, 0.1 units/ml of adenosine deaminase and 1% dimethylsulfoxide. N^6 -Cyclopentyladenosine was dissolved at 10 mM in 0.02N HCl and diluted in Tris. Stock solutions and dilutions of N^6 -cyclopentyladenosine could be stored at -20° C. for several months. Test compounds were dissolved at 10 mM in dimethylsulfoxide on the same day as the experiment, and diluted in dimethylsulfoxide to 100× the final incubation concentration. Control incubations received an equal volume (10 μl) of dimethylsulfoxide; the resulting concentration of dimethylsulfoxide had no effect on binding. [^3 H]NECA was diluted to 40 nM in Tris. The membrane suspension (5 mg/0.79 ml) contained sufficient MgCl2 and adenosine deaminase to give 10 mM and 0.1 units/ml, respectively, final concentration in the incubation. […] After all additions, the rack of tubes was vortexed, and the tubes were then incubated for 60 min at 25° C. in a shaking water bath. The rack of tubes was vortexed an additional time halfway through the incubation.
Incubations were terminated by filtration through 2.4 cm GF/B filters under reduced pressure. Each tube was filtered as follows: the contents of the tube were poured on the filter, 4 ml of ice-cold Tris were added to the tube and the contents poured onto the filter, and the filter was washed twice with 4 ml of ice-cold Tris. The filtration was complete in about twelve seconds. Filters were put in scintillation vials, 8 ml of Formula 947 scintillation fluid added, and the vials left overnight, shaken, and counted in a liquid scintillation counter at 40% efficiency.
Nonspecific binding was defined as binding in the presence of 100 μM N^6 -cyclopentyladenosine, and specific binding was defined as total binding minus nonspecific binding. The IC50 was calculated by weighted nonlinear least squares curve-fitting to the mass-action equation. [formula] where Y is cpm bound
T is cpm total binding without drug
S is cpm specific binding without drug
D is the concentration of drug and
K is the IC50 of the drug
Weighting factors were calculated under the assumption that the standard deviation was proportional to the predicted value of Y. Nonspecific binding was treated as a very large (infinite) concentration of drug in the computer analysis.

| Compound | pIC50 (adenosine A1 receptor) | pIC50 (adenosine A2 receptor) |
| --- | --- | --- |
| CCOC(=O)[C@H]1O[C@@H](n2cnc3c(NC4CC5CCC4C5)ncnc32)[C@H](O)[C@@H]1O (relative stereo) [Example 8, N-6-Norbornyl-adenosine-5'ethylcarboxylate] | 8.40 | 4.91 |
| CCNC(=O)[C@H]1O[C@@H](n2cnc3c(NCc4cccc5ccccc45)ncnc32)[C@H](O)[C@@H]1O [Example 6, N-6-Naphthylmethyladenosine-5'-ethylcarboxamide] | 7.31 | 8.10 |
| CCOC(=O)[C@H]1O[C@@H](n2cnc3c(NCC(c4ccccc4)c4ccccc4)ncnc32)[C@H](O)[C@@H]1O [Example 5, N6-(2,2-diphenylethyl)-5-adenosine-5'-ethylcarboxylate] | 6.54 | 6.33 |
| CCNC(=O)[C@H]1O[C@@H](n2cnc3c(NCC(c4ccccc4)c4ccccc4)ncnc32)[C@H](O)[C@@H]1O [Example 3, N^6-(2,2-diphenylethyl)-adenosine-5'-ethylcarboxamide] | 7.80 | 7.60 |
| CCNC(=O)[C@H]1O[C@@H](n2cnc3c(N[C@H](C)Cc4ccccc4)ncnc32)[C@H](O)[C@@H]1O [Example 1, (R)-N-6-[(2-phenyl-1-methyl)ethyl]-adenosine-5'-ethylcarboxamide] | 8.70 | 7.15 |
